This note sets out measurements from patent US9802960B2 (MILLENNIUM PHARMACEUTICALS, INC., priority 2014, dated 2017).

One test deals with Human VPS34 (Homo sapiens (Human), UniProt Q8NEB9). The test can be described thus: Human VPS34 enzyme assay (Adapta TR-FRET). Particulars: IC50 range class. The class given is biochemical. (TR-FRET usually uses a lanthanide donor and a delayed reading to cut background.)
Sequence of Human VPS34 (Q8NEB9 whole entry): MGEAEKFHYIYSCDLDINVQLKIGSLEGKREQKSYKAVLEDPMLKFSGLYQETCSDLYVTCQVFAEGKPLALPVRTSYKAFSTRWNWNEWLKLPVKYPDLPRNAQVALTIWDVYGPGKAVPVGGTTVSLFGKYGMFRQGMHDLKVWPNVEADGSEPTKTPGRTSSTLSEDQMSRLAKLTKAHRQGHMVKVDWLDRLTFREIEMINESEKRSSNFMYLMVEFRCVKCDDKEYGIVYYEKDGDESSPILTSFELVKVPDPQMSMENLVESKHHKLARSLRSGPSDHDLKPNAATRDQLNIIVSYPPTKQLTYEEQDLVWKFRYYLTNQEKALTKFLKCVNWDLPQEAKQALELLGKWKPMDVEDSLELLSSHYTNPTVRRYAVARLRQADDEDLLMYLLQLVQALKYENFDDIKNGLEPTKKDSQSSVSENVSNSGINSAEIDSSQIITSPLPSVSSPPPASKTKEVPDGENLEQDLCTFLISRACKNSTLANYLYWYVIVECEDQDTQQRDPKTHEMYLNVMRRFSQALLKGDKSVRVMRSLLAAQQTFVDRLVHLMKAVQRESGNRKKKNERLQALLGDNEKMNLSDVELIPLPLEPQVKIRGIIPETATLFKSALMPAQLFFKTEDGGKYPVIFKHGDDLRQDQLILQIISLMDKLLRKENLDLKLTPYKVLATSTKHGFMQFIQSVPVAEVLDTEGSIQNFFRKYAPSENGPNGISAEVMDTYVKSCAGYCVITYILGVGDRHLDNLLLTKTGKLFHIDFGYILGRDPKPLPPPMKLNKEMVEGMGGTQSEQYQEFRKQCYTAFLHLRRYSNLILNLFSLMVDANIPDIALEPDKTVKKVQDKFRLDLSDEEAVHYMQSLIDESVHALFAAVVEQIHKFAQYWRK
Compound `Cc1cccc(Nc2cc(-c3cnc(C)c(NS(=O)(=O)c4ccc(F)cc4F)c3)ccn2)n1` [Compound I-276, 2,4-difluoro-N-{6-methyl-2′-[(6-methylpyridin-2-yl)amino]-3,4′-bipyridin-5-yl}benzenesulfonamide] came in with an IC50 below 10 nM.
Same read-out and setting: for `Cc1nccc(Nc2cc(-c3cnc(C)c(NS(=O)(=O)c4ccc(F)cc4F)c3)ccn2)n1` [Compound I-291, 2,4-difluoro-N-{6-methyl-2′-[(2-methylpyrimidin-4-yl)amino]-3,4′-bipyridin-5-yl}benzenesulfonamide] the value was below 10 nM.

The test is the same for the next values; noted with them: compound concentration 1.11 μM.
Take `Cc1nccc(Nc2cc(-c3cnc(N)c(C(=O)N(C)C45CC(C4)C5)c3)ccn2)n1` [Compound I-277, 6-amino-N-(bicyclo[1.1.1]pent-1-yl)-N-methyl-2′-[(2-methylpyrimidin-4-yl)amino]-3,4′-bipyridine-5-carboxamide]: the “Percent Inhibition” value was 100%.
Regarding `Cc1c(-c2ccnc(N)c2)cnc(Cl)c1NS(=O)(=O)c1ccc(F)cc1F` [Compound I-287, N-(2′-amino-6-chloro-4-methyl-3,4′-bipyridin-5-yl)-2,4-difluorobenzenesulfonamide], the “Percent Inhibition” value was determined as 91%.

Staying with this test, now noted: compound concentration 1.11 μM; read-out: Percent Inhibition.
`Cc1ncc(-c2ccnc(-n3cnc4c(C)nccc43)c2)cc1NS(=O)(=O)N(C)C` [Compound I-263, N,N-dimethyl-N-[6-methyl-2′-(4-methyl-1H-imidazo[4,5-c]pyridin-1-yl)-3,4′-bipyridin-5-yl]sulfuric diamide]: the inhibition at 1.11 µM came to 53%.
For `Cc1c(-c2ccnc(Nc3ccnc(-c4ccccc4)n3)c2)cnc(Cl)c1NS(=O)(=O)c1ccc(F)cc1F` [Compound I-264, N-{6-chloro-4-methyl-2′-[(2-phenylpyrimidin-4-yl)amino]-3,4′-bipyridin-5-yl}-2,4-difluorobenzenesulfonamide], the inhibition at 1.11 µM is 100%.
Still for that read-out and setting: for `Cc1ncc(-c2ccnc(Nc3ncccn3)c2)cc1NS(=O)(=O)c1ccc(F)cc1F` [Compound I-265, 2,4-difluoro-N-[6-methyl-2′-(pyrimidin-2-ylamino)-3,4′-bipyridin-5-yl]benzenesulfonamide] the value was above 99%; for `Cc1nccc(Nc2cc(-c3cnc(C)c(C(=O)N(C)C)c3)ccn2)n1` [Compound I-266, N,N,6-trimethyl-2′-[(2-methylpyrimidin-4-yl)amino]-3,4′-bipyridine-5-carboxamide], 100%.
Same read-out and setting: for `Cc1ncc(-c2ccnc(NC(=O)C3CC3(F)F)c2)cc1NS(=O)(=O)c1ccc(F)cc1F` (stereo not drawn) [Compound I-267a, N-(5-{[(2,4-difluorophenyl)sulfonyl]amino}-6-methyl-3,4′-bipyridin-2′-yl)-2,2-difluorocyclopropanecarboxamide] the value was 97%; for `COc1ncc(-c2ccnc(NC(C)=O)c2)c(C)c1NS(=O)(=O)N(C)C` [Compound I-268, N-{5-[(dimethylsulfamoyl)amino]-6-methoxy-4-methyl-3,4′-bipyridin-2′-yl}acetamide], 100%; for `CC(=O)Nc1cc(-c2cnc(C)c(NS(=O)(=O)N3CCN(C)CC3)c2)ccn1` [Compound I-269, N-(6-methyl-5-{[(4-methylpiperazin-1-yl)sulfonyl]amino}-3,4′-bipyridin-2′-yl)acetamide], above 99%.
The same measure, in the same setting: the same measure for `Cc1ncc(-c2ccnc(Nc3nc4ccccc4s3)c2)cc1NS(=O)(=O)c1ccc(F)cc1F` [Compound I-271, N-[2′-(1,3-benzothiazol-2-ylamino)-6-methyl-3,4′-bipyridin-5-yl]-2,4-difluorobenzenesulfonamide]: 91%; for `Cc1cc(Nc2cc(-c3cnc(Cl)c(NS(=O)(=O)c4ccc(F)cc4F)c3C)ccn2)ccn1` [Compound I-272, N-{6-chloro-4-methyl-2′-[(2-methylpyridin-4-yl)amino]-3,4′-bipyridin-5-yl}-2,4-difluorobenzenesulfonamide]: above 99%; for `CCN(C)S(=O)(=O)Nc1cc(-c2ccnc(NC(C)=O)c2)cnc1C` [Compound I-273, N-(5-{[ethyl(methyl)sulfamoyl]amino}-6-methyl-3,4′-bipyridin-2′-yl)acetamide]: above 99%.
Take `CC(=O)Nc1cc(-c2cnc(C)c(NS(=O)(=O)N3CCCC3)c2)ccn1` [Compound I-274, N-{6-methyl-5-[(pyrrolidin-1-ylsulfonyl)amino]-3,4′-bipyridin-2′-yl}acetamide]: the inhibition at 1.11 µM was above 99%.
As for `Cc1nccc(Nc2cc(-c3cnc(C)c(C(=O)N(C)C45CC(C4)C5)c3)ccn2)n1` [Compound I-275, N-(bicyclo[1.1.1]pent-1-yl)-N,6-dimethyl-2′-[(2-methylpyrimidin-4-yl)amino]-3,4′-bipyridine-5-carboxamide], the inhibition at 1.11 µM is above 99%.
On the same count and under the same terms, the same measure for `Cc1cccc(Nc2cc(-c3cnc(C)c(NS(=O)(=O)c4ccc(F)cc4F)c3)ccn2)n1` [Compound I-276, 2,4-difluoro-N-{6-methyl-2′-[(6-methylpyridin-2-yl)amino]-3,4′-bipyridin-5-yl}benzenesulfonamide]: 96%; for `CCc1c(-c2ccnc(NC(=O)C3CC3)c2)cnc(Cl)c1NS(=O)(=O)c1ccc(F)cc1F` [Compound I-278, N-(6-chloro-5-{[(2,4-difluorophenyl)sulfonyl]amino}-4-ethyl-3,4′-bipyridin-2′-yl)cyclopropanecarboxamide]: above 99%; for `Cc1nccc(Nc2cc(-c3cnc(O)c(S(=O)(=O)NC4CCC4)c3)ccn2)n1` [Compound I-279, N-cyclobutyl-6-hydroxy-2′-[(2-methylpyrimidin-4-yl)amino]-3,4′-bipyridine-5-sulfonamide]: 93%.
The same measure, in the same setting: for `Cc1nccc(Nc2cc(-c3cnc(C)c(C(N)=O)c3)ccn2)n1` [Compound I-280, 6-methyl-2′-[(2-methylpyrimidin-4-yl)amino]-3,4′-bipyridine-5-carboxamide] the value was 83%.
On the same count and under the same terms, for `Cc1ncc(-c2ccnc(N)c2)cc1NS(=O)(=O)N(C)C` [Compound I-281, N′-(2′-amino-6-methyl-3,4′-bipyridin-5-yl)-N,N-dimethylsulfuric diamide] the value was 40%.
For the compound `Cc1c(-c2ccnc(Nc3ccncn3)c2)cnc(Cl)c1NS(=O)(=O)c1ccc(F)cc1F` [Compound I-282, N-[6-chloro-4-methyl-2′-(pyrimidin-4-ylamino)-3,4′-bipyridin-5-yl]-2,4-difluorobenzenesulfonamide], the inhibition at 1.11 µM stood at 94%.
Same read-out and setting: for `CC(=O)Nc1cc(-c2cnc(N(C)C)c(C(=O)NC34CC(C3)C4)c2)ccn1` [Compound I-283, 2′-Acetamido-N-(bicyclo[1.1.1]pent-1-yl)-6-(dimethylamino)-3,4′-bipyridine-5-carboxamide] the value was above 99%; for `CN(C)c1ncc(-c2ccnc(Nc3ccncn3)c2)cc1C(=O)N(C)C12CC(C1)C2` [Compound I-284, N-(bicyclo[1.1.1]pent-1-yl)-6-(dimethylamino)-N-methyl-2′-(pyrimidin-4-ylamino)-3,4′-bipyridine-5-carboxamide], above 99%.
On to `Cc1nccc(Nc2cc(-c3cnc(C)c(C(=O)NCC4CC4)c3)ccn2)n1` [Compound I-285, N-(cyclopropylmethyl)-6-methyl-2′-((2-methylpyrimidin-4-yl)amino)-[3,4′-bipyridine]-5-carboxamide], for which the inhibition at 1.11 µM is 85%.
For `Cc1nccc(Nc2cc(-c3cnc(C)c(NS(=O)(=O)N(C)C)c3)ccn2)n1` [Compound I-286, N,N-dimethyl-N-{6-methyl-2′-[(2-methylpyrimidin-4-yl)amino]-3,4′-bipyridin-5-yl}sulfuric diamide], the inhibition at 1.11 µM was above 99%.
For `Cc1nccc(Nc2cc(-c3cnc(C)c(N4CCCN(C)S4(=O)=O)c3)ccn2)n1` [Compound I-288, 6-methyl-5-(6-methyl-1,1-dioxido-1,2,6-thiadiazinan-2-yl)-N-(2-methylpyrimidin-4-yl)-3,4′-bipyridin-2′-amine], the inhibition at 1.11 µM was determined as 91%.
Regarding `Cc1nc(Nc2cc(-c3cnc(C)c(NS(=O)(=O)c4ccc(F)cc4F)c3)ccn2)ccc1C#N` [Compound I-289, N-{2′-[(5-cyano-6-methylpyridin-2-yl)amino]-6-methyl-3,4′-bipyridin-5-yl}-2,4-difluorobenzene sulfonamide], the inhibition at 1.11 µM is above 99%.
For `CC(=O)Nc1cc(-c2cnc(Cl)c(NS(=O)(=O)c3ccc(F)cc3Cl)c2C)ccn1` [Compound I-290, N-(6-chloro-5-{[(2-chloro-4-fluorophenyl)sulfonyl]amino}-4-methyl-3,4′-bipyridin-2′-yl)acetamide], the inhibition at 1.11 µM is above 99%.
Still for that read-out and setting: the same measure for `Cc1nccc(Nc2cc(-c3cnc(C)c(NS(=O)(=O)c4ccc(F)cc4F)c3)ccn2)n1` [Compound I-291, 2,4-difluoro-N-{6-methyl-2′-[(2-methylpyrimidin-4-yl)amino]-3,4′-bipyridin-5-yl}benzenesulfonamide]: 95%; for `Cc1ncc(-c2ccnc(Nc3ccnc(C(F)(F)F)n3)c2)cc1C(=O)N1CCC1` [Compound I-292, azetidin-1-yl(6-methyl-2′-{[2-(trifluoromethyl)pyrimidin-4-yl]amino}-3,4′-bipyridin-5-yl)methanone]: 99%; for `Cc1ccnc(Nc2cc(-c3cnc(Cl)c(NS(=O)(=O)c4ccc(F)cc4F)c3C)ccn2)n1` [Compound I-293, N-{6-chloro-4-methyl-2′-[(4-methylpyrimidin-2-yl)amino]-3,4′-bipyridin-5-yl}-2,4-difluorobenzene sulfonamide]: above 99%.
On the same count and under the same terms, the same measure for `Cc1nccc(Nc2cc(-c3cnc(Cl)c(NS(=O)(=O)c4ccc(F)cc4F)c3C)c(F)cn2)n1` [Compound I-294, N-{6-chloro-5′-fluoro-4-methyl-2′-[(2-methylpyrimidin-4-yl)amino]-3,4′-bipyridin-5-yl}-2,4-difluorobenzenesulfonamide]: 94%; for `Cc1nccc(Nc2cc(-c3cnc(Cl)c(NC(=O)c4ccc(F)cc4F)c3C)ccn2)n1` [Compound I-295, N-{6-chloro-4-methyl-2′-[(2-methylpyrimidin-4-yl)amino]-3,4′-bipyridin-5-yl}-2,4-difluorobenzamide]: 80%; for `Cc1c(-c2ccnc(Nc3ccnc(C4CC4)n3)c2)cnc(Cl)c1NS(=O)(=O)c1ccc(F)cc1F` [Compound I-296, N-{6-chloro-2′-[(2-cyclopropylpyrimidin-4-yl)amino]-4-methyl-3,4′-bipyridin-5-yl}-2,4-difluorobenzene sulfonamide]: 90%.
On the same count and under the same terms, the same measure for `Cc1ncc(-c2ccnc(Nc3ccccn3)c2)cc1NS(=O)(=O)c1ccc(F)cc1F` [Compound I-297, 2,4-difluoro-N-[6-methyl-2′-(pyridin-2-ylamino)-3,4′-bipyridin-5-yl]benzenesulfonamide]: above 99%.

As usually defined, the IC50 is the midpoint of a concentration-inhibition curve. Broadly, the inhibition is the relative decrease from the control value, in per cent.
